Data taken from patent publication US20190055231A1, “BACE1 INHIBITORS” (Hoffmann-La Roche Inc., priority 2016, published 2019).
Where two headings read alike, the source gives them in different places.

What was measured:
[1] = system: CSF Aβ40; experiment: Rat single dose study, inhibition of CSF Aβ40 in Wistar rats; type: in vivo; settings: rat CSF Aβ40, 1 mg/kg, 4 h post dose
Procedure: (§1) Rat Single Dose PK Study (Inhibition of CSF Aβ40 in Wistar Rats)
(§2) The rat single dose PK study was described in H. Hilpert et al., J. Med. Chem. 2013, 56, 3980-3995 (dx.doi.org/10.1021/jm400225m) with slight modifications.
(§3) Aβ 40 concentration was determined without solid phase extraction following a modified protocol from Perkin-Elmer with a commercially available antibody against the N-terminal part of rat Aβ (252Q6, Invitrogen cat. No. AMB0062) and an in-house C-terminal specific anti-Aβ40 antibody (BAP-24, Brockhaus M. et al., J. Neuroreport, 1998, 9:1481-1486) bound to acceptor beads (PerkinElmer, Cat. 6772002). 20 μl analyte per well (reconstituted extracts or standard) were loaded to a White Optiplate-96 (Perkin-Elmer, Cat#6005290). Then, a mixture of biotinylated BAP24 antibody (1:2000 diluted at approximately 1 nM final concentration) and antibody 252Q6 bound to AlphaLISA acceptor beads (Perkin-Elmer cat. No. 6772002 (1:100 diluted, 10 ug/mL final concentration) in 1× AlphaLISA buffer (Perkin-Elmer, AL000F) was added. After 1 hour room temperature incubation in the dark, 20 μL of a streptavidin coated donor beads dilution (40 μg/mL) were added and incubated for 30 minutes in the dark. Light emission at 615 nm was recorded using an EnVision AlphaScreen Reader (Perkin-Elmer). Levels of Aβ 40 were calculated as percentage of the baseline samples from non-treated animals.

[2] = Cynomolgus monkey single dose PK study; type: in vivo, Cynomolgus monkey (Macacaca fascicularis)
Text: Cynomolgus Monkey (Macacaca fascicularis) Single Dose PK Study and Plasma Aβ40 Determination
Blood and plasma collection will always be performed in the treatment cage. The animal care keeper grabs either one arm or one leg through the bars. The hairs are shaved for better visibility of the vein. The blood vessel is squeezed, the vein is punctured by using a butterfly and blood is taken. Once enough blood has been withdrawn a cotton swab is placed over the injection site and the needle is gently removed. Bleeding is stopped by pressing a cotton swab on the wound. Plasma samples were taken between 5 min and 48 h.
Plasma Preparation Cynomolgus
(§4) Blood is transferred into a labeled EDTA-K2 Eppendorf tube and the sample is mixed by inverting the tubes several times. Blood is stored at −20° C.

[3] = target: Human P-gp (Homo sapiens, UniProt P08183); experiment: P-gp transport assay (human); type: in vitro ADME; settings: efflux ratio
Human P-gp, sequence (P08183 whole entry): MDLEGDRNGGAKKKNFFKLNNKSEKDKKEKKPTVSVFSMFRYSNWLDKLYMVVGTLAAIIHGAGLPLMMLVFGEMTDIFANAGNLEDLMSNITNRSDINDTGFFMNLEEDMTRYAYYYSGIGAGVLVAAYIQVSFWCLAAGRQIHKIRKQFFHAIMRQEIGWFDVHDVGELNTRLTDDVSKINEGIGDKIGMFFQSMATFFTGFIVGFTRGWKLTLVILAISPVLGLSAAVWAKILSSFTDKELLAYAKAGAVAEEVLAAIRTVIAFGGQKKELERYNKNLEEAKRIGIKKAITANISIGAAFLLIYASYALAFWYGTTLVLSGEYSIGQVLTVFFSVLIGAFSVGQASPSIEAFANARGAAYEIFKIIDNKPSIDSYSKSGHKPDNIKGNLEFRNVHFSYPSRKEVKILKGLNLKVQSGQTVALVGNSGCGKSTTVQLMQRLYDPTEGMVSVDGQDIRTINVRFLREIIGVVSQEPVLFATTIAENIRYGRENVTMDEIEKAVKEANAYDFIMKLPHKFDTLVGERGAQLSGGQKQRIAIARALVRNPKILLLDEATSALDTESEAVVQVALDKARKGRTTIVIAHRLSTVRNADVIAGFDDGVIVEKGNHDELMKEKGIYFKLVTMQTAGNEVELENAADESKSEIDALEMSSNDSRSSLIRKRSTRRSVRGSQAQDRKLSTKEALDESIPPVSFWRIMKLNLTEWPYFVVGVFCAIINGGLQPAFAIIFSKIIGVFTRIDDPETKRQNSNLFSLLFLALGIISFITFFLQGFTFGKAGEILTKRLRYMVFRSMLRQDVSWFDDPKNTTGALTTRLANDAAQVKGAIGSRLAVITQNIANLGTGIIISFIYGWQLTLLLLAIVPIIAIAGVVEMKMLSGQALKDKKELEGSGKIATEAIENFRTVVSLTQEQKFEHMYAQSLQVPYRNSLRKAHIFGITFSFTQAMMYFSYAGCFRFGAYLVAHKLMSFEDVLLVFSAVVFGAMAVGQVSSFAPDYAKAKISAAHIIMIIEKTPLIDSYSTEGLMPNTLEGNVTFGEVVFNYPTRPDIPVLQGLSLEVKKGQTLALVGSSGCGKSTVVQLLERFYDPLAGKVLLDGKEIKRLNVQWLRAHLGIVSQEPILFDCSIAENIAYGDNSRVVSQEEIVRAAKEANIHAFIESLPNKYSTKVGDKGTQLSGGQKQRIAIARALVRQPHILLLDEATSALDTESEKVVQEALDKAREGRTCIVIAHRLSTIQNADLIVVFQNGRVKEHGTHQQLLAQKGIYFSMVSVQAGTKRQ
Text: (§5) P-Gp Transport Assay (Human and Mouse) (P-Gp Assay)
(§6) In the assay of the P-gp efflux ratio ER as described hereinabove, a compound with ER<2.5 is regarded most suitable. In addition, compounds with low hERG channel binding are suitable as well.

[4] = target: Mouse P-gp (Mus musculus, UniProt P21447); experiment: P-gp transport assay (mouse); type: in vitro ADME; settings: efflux ratio
Mouse P-gp, sequence (P21447 whole entry): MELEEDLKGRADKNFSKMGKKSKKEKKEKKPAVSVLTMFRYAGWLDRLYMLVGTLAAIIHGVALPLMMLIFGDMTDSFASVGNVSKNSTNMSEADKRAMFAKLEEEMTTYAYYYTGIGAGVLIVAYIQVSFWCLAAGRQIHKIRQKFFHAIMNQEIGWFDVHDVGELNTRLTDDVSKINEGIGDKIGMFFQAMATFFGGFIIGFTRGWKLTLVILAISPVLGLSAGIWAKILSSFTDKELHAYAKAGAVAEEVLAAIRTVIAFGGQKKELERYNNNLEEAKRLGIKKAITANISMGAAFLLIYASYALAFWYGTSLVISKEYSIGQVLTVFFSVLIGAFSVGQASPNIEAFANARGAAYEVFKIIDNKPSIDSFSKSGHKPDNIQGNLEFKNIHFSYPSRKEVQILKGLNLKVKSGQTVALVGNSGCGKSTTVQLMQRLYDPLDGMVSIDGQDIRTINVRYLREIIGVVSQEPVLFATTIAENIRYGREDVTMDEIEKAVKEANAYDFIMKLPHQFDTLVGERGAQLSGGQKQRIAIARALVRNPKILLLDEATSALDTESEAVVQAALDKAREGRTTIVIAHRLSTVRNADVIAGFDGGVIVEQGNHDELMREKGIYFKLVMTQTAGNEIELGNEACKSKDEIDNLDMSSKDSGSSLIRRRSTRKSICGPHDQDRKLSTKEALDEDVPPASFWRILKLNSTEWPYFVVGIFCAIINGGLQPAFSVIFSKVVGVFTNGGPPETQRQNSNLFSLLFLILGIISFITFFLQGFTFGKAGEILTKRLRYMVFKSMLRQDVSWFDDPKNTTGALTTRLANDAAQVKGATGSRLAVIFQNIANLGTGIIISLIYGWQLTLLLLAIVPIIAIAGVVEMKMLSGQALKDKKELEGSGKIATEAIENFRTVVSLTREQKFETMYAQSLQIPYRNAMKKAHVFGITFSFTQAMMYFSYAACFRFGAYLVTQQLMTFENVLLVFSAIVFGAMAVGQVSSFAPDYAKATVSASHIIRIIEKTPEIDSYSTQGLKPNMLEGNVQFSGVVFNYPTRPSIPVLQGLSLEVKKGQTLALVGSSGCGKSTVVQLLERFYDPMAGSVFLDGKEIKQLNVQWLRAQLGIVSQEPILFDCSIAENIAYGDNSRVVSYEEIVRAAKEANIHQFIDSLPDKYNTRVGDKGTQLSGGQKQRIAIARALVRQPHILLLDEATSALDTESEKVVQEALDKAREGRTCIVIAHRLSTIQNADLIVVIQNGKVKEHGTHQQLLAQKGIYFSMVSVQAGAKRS
Text: as §5, §6

[5] = system: Aβ40 in brain of wild-type mice; experiment: Mouse acute in vivo model (inhibition of Aβ40 in brain of wild-type mice); settings: 4 h post dose
Procedure: Mouse Acute In Vivo Model (Inhibition of Aβ40 in Brain of Wild-Type Mice)
Single Dose Efficacy in Mice
The mouse single dose efficacy was measured in brain homogenate from C57Bl/6J wildtype mice after DEA extraction as described in H. Hilpert et al., J. Med. Chem. 2013, 56, 3980-3995 (dx.doi.org/10.1021/jm400225m).
as §3, with “determined after” for “determined without”, “extraction as described above and” for “extraction”, “20 uL” for “20 μL”, “of Aβ40” for “of Aβ 40”
Aβ40 lowering was determined after oral administration in wild-type mice (C57Bl/6J mice, n=3-4) 4 h post dosing. Wild-type mice were used as they have a normal physiological level of APP expression and are thus expected to provide a better physiological model for Aβ-peptide production than APP-transgenic organisms. In vivo efficacy is a key factor for appropriate drug candidates, being more relevant than in vitro activities.

[6] = target: hERG channel (Homo sapiens, UniProt Q12809); experiment: hERG IC20 assay; type: cell-based
hERG channel, sequence (Q12809 whole entry): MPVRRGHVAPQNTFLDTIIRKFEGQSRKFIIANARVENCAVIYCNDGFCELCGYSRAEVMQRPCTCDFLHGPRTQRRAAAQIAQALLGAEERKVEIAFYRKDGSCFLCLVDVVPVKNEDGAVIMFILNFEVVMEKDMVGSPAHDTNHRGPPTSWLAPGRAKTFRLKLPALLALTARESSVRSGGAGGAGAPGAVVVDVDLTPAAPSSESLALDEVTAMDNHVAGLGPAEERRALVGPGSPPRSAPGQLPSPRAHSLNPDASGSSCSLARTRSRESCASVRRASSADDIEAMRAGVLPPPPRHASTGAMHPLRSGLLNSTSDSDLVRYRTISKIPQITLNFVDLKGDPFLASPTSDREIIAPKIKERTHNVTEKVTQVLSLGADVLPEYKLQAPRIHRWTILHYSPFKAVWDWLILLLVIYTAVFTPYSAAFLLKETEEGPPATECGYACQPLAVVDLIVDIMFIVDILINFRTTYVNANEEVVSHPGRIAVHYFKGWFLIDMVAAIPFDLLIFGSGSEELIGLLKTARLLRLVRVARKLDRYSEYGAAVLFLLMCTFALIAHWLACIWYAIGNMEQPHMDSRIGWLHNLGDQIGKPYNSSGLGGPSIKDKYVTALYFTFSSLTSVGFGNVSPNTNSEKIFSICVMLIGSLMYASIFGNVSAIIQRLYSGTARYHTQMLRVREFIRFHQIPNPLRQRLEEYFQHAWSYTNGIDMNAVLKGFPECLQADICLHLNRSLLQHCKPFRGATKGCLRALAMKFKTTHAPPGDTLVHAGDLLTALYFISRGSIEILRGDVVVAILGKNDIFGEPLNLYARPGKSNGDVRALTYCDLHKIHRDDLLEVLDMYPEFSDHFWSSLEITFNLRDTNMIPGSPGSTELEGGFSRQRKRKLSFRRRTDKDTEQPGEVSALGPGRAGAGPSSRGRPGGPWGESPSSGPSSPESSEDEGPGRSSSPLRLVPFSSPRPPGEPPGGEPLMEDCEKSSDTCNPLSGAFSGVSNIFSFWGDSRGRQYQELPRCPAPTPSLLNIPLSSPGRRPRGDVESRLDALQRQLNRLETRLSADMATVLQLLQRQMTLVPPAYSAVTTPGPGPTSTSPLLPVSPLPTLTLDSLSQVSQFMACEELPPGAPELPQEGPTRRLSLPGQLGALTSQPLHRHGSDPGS
Text: The methods to determine the hERG IC20 values was described in Industrializing electrophysiology: HT automated patch clamp on SyncroPatch® 96 using instant frozen cells. Polonchuk L., Methods Mol Biol. 2014; 1183:81-92. (doi: 10.1007/978-1-4939-1096-0_5.) PMID:25023303
QT prolongation is a cardiovascular risk caused by drug candidates which inhibit the hERG channel (human ether a go-go). A sufficient safety margin between the hERG IC20 value and the free plasma concentration necessary to achieve the envisaged thereapeutic effects is desired (ICH. The nonclinical evaluation of the potential for delayed ventricular repolarization (QT interval prolongation) by human pharmaceuticals (S7B), issued as CPMP/ICH/423/02, adopted by CHMP in May 2005 (http://www.ich.org/cache/compo/276-254-1.html; Redfern W S, Carlsson L, Davis A S, Lynch W G, MacKenzie I, Palethorpe S, Siegl P K, Strang I, Sullivan A T, Wallis R, Camm A J, Hammond T G. Relationships between preclinical cardiac electrophysiology, clinical QT interval prolongation and torsade de pointes for a broad range of drugs: evidence for a provisional safety margin in drug development. Cardiovasc Res. 2003 Apr. 1; 58(1):32-45.)). Reducing the activity against efflux transporters expressed at the blood-brain-barrier such as P-glycoprotein P-gp, might result in reduction of the free plasma concentration by optimizing brain penetration.

[7] = Rat single dose PK study; type: in vivo; settings: 1 mg/kg; for concentration at 4 h: oral
Procedure: as §1, §2, §4

C[C@]1(c2nc(NC(=O)c3ccc(C#N)cn3)ccc2F)N=C(N)O[C@H](C(F)(F)F)[C@@H]1F [Comparator 6]
CSF Aβ-lowering 1 mg/kg at 4 h [1]: 77%
lower exposure compared to example 1 [2]: 5 fold
clearance ([2]; plasma): 9.7 mL/min/kg
bioavailability ([2]; plasma, po, read-out: Oral Bioavailability F): 63%
half-life ([2]; plasma, po, read-out: t1/2 p.o. (converted)): 11 h
Human P-gp ER [3]: 1.1
Mouse P-gp ER [4]: 2.4
Brain Aβ-lowering 3 mg/kg ([5]; single p.o. dose 3 mg/kg): 86%
Brain Aβ-lowering 10 mg/kg ([5]; single p.o. dose 10 mg/kg): 94%
higher affinity to hERG than example 1 [6]: 6 fold
IC20 ([6]; human, hERG IC20 assay): 400 nM
Plasma concentration at 4 h, free ([7]; 4 h, free unbound): 36.3 nM
Plasma concentration at 4 h ([7]; 4 h, total): 193 nM
concentration at 4 h ([7]; Wistar, plasma, 4 h, free unbound, read-out: Plasma concentration at 4 h, free): 36.3 nM
concentration at 4 h ([7]; Wistar, plasma, 4 h, free, read-out: Plasma concentration at 4 h, free): 85 ng/mL
concentration at 4 h ([7]; Wistar, plasma, 4 h, total, read-out: Plasma concentration at 4 h): 85 ng/mL
bioavailability ([7]; Wistar, plasma, po, read-out: Oral Bioavailability F): 19%
